Assay results as given in PubChem BioAssay (NCI).
Several values for one entry are separate records, joined by “and”; a condition that tells them apart may be missing. Identical values can stand only once.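 Five compound concentrations were applied to cells in 96-well plates for 48 hours; endpoints were derived by simple linear interpolation of the resulting dose-response curve. At the GI50, growth is halved. Definition used: TGI = concentration required for complete inhibition of growth.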

What follows are compounds tested on RPMI-8226 leukemia (assay: NCI-60 cell line screen, 48 h).
In the case of `CN(C)C(=O)NCCN1CCCCCc2ccccc21`, the TGI is reported as > 100 µM. For `Cc1ccc2c(c1CCCC(C)(C)O)C(=O)C(=O)C(C(C)C)=C2O`, the TGI was > 100 µM. `CC1(C#N)CC(C)(C)C(/C=C2/CC(C)(C)C(/C=C3/OC(=N)CC3(C)C)=N2)=N1` (configuration not stated) gave a TGI of 64 µM. With `CC(=O)Oc1ccccc1-c1cc2ccccc2oc1=O` the TGI was > 100 µM. For `C=C1C(=O)O[C@H]2[C@H]1[C@@H](OC(=O)C=C(C)C)CC1=C[C@@H](C[C@@]3(C)O[C@@H]23)OC1=O`, the GI50 was 810 nM and 2610 nM and the TGI was 67.2 µM and 7.16 µM. With `O=c1[nH]cc(COCC(F)(F)C(F)(F)C(F)(F)C(F)F)c(=O)[nH]1` the TGI was > 100 µM. With `CCC1c2[nH]c3ccccc3c2C[C@H]2C(=O)NC(COC(C)(C)C)C(=O)N12` (some centres not stated) the TGI was > 100 µM. `Cc1ccc(C2CC(c3ccco3)=NN2c2ccccc2)o1` (configuration not stated) was tested, and the TGI was > 100 µM. `COC(=O)C(=C/c1ccc(OC)cc1)/C(C(=O)O)=C(/C)c1ccccc1` was tested, and the TGI was > 100 µM. With `COC(=O)c1ccc(/C=C2\N=C(C)OC2=O)cc1` the TGI was > 100 µM. In the case of `Nc1ccc(C(=O)NN2C(=O)C(Cl)C2c2ccccc2Cl)cc1` (configuration not stated), the TGI is reported as > 100 µM. In the case of `CCOC(=O)c1csc(NC(=O)C(C)N2CCCCC2)n1` (configuration not stated), the TGI is reported as > 100 µM. In the case of `O=C1c2cc3c(cc2CC12Cc1cc4c(cc1C2=O)CCC4)CCCC3` (configuration not stated), the TGI is reported as > 100 µM. In the case of `N#Cc1sc2nc(/C=C3/C=CC=CC3=O)c(O)n2c1N`, the TGI is reported as 81.2 µM. With `CCN1CCN(c2ccc(Nc3ccnc4ccc5nn(C)nc5c34)cc2)CC1` the TGI was > 100 µM. `O=C(O)c1ccc(NNc2cc(=O)[nH]c(=O)[nH]2)cc1` was tested, and the TGI was > 100 µM. With `COC(=O)C1OC(Oc2cc(O)c3c(=O)cc(-c4ccc(O)cc4)oc3c2)C(O)C(O)C1O` (configuration not stated) the TGI was > 100 µM. In the case of `C=CCn1c(=O)n(CC=C)c(=O)n(CC=C)c1=O`, the TGI is reported as > 100 µM. With `CC12CCC(C(=O)OC1=O)C2(C)C` (configuration not stated) the TGI was > 100 µM. For `O=C1C(Cl)C(c2ccccc2)N1n1cnc2ccccc2c1=O` (configuration not stated), the TGI was > 100 µM. `CN(C)C(=O)OCOC(=O)N(C)C` was tested, and the TGI was > 100 µM. For `CCOC(=O)C1=C(Nc2cccc(OC)c2)OCC1=O`, the TGI was > 100 µM. Compound `CC(=O)OCC1OC(Nc2ncc(-c3ccc(C)cc3)s2)C(OC(C)=O)C(OC(C)=O)C1OC(C)=O` (configuration not stated) has a TGI of 65.4 µM. With `CCCCN1C=CN2c3nc4cc(C)c(C)cc4n3C(C(=O)OC)=C(C(=O)OC)C12` (configuration not stated) the TGI was > 100 µM. With `CCCCCC(C[N+]1(C)CCOCC1)C(=O)/C=C/c1ccccc1` (configuration not stated) the TGI was 8.59 µM. In the case of `COc1ccc2c(c1)CC[C@@H]1[C@@H]2CC[C@]2(C)C(=O)/C(=C/c3ccc(OC)c(OC)c3)C[C@@H]12`, the TGI is reported as > 100 µM. `C/C(=C1/CCCC2(N=NCC2c2ccccc2)C1=O)c1ccccc1` (configuration not stated) was tested, and the TGI was > 100 µM. In the case of `CO[C@H]1[C@@H](O)[C@@H](C)O[C@@H](O[C@H]2CC[C@@]3(C)[C@H](CC[C@@H]4[C@@H]3CC[C@]3(C)[C@@H](C5=CC(=O)OC5)[C@@H](OC(C)=O)C[C@]43O)C2)[C@@H]1O`, the TGI is reported as > 16.2 µM.

Each compound was assayed on EKVX NSCLC (assay: NCI-60 cell line screen, 48 h).
In the case of `CN(C)C(=O)NCCN1CCCCCc2ccccc21`, the TGI is reported as > 100 µM. With `Cc1ccc2c(c1CCCC(C)(C)O)C(=O)C(=O)C(C(C)C)=C2O` the TGI was > 100 µM. In the case of `CCOC(=O)c1nc2c(Cl)c3ncccc3cc2[nH]c1=O`, the TGI is reported as > 100 µM. Compound `CC1(C#N)CC(C)(C)C(/C=C2/CC(C)(C)C(/C=C3/OC(=N)CC3(C)C)=N2)=N1` (configuration not stated) has a TGI of 51.6 µM. In the case of `CC(=O)Oc1ccccc1-c1cc2ccccc2oc1=O`, the TGI is reported as > 100 µM. `C=C1C(=O)O[C@H]2[C@H]1[C@@H](OC(=O)C=C(C)C)CC1=C[C@@H](C[C@@]3(C)O[C@@H]23)OC1=O` was tested, and the GI50 was 839 nM and the TGI was 10.2 µM and 5.83 µM. `C[C@]12CCC(=O)C=C1CC[C@@H]1C2CC[C@]2(C)c3nn(-c4ccc(F)cc4)nc3CC12` (some centres not stated) was tested, and the TGI was > 100 µM. `Cc1ccc2nc(-c3ccc(N)c(I)c3)sc2c1` was tested, and the TGI was > 100 µM. With `O=c1[nH]cc(COCC(F)(F)C(F)(F)C(F)(F)C(F)F)c(=O)[nH]1` the TGI was > 100 µM. In the case of `CCC1c2[nH]c3ccccc3c2C[C@H]2C(=O)NC(COC(C)(C)C)C(=O)N12` (some centres not stated), the TGI is reported as > 100 µM. In the case of `O=C1NC(=O)C(CCO)(c2ccccc2)C(=O)N1`, the TGI is reported as > 100 µM. For `Cc1cn(C2CC(ON3C(=O)c4ccccc4C3=O)C(CO)O2)c(=O)[nH]c1=O` (configuration not stated), the TGI was > 10 µM. `Cc1ccc(C2CC(c3ccco3)=NN2c2ccccc2)o1` (configuration not stated) was tested, and the TGI was > 100 µM. `COC(=O)C(=C/c1ccc(OC)cc1)/C(C(=O)O)=C(/C)c1ccccc1` was tested, and the TGI was > 100 µM. With `COC(=O)c1ccc(/C=C2\N=C(C)OC2=O)cc1` the TGI was > 100 µM. Work on `Nc1ccc(C(=O)NN2C(=O)C(Cl)C2c2ccccc2Cl)cc1` (configuration not stated) yielded a TGI of 31.7 µM. `CCOC(=O)c1csc(NC(=O)C(C)N2CCCCC2)n1` (configuration not stated) was tested, and the TGI was > 100 µM. In the case of `O=C1c2cc3c(cc2CC12Cc1cc4c(cc1C2=O)CCC4)CCCC3` (configuration not stated), the TGI is reported as > 100 µM. `N#Cc1sc2nc(/C=C3/C=CC=CC3=O)c(O)n2c1N` was tested, and the TGI was > 100 µM. `Cc1cccc2c1Oc1cc(Cl)ccc1C2NC(=O)CCN1CCOCC1` (configuration not stated) was tested, and the TGI was > 100 µM. `O=C(O)c1ccc(NNc2cc(=O)[nH]c(=O)[nH]2)cc1` was tested, and the TGI was > 100 µM. For `COC(=O)C1OC(Oc2cc(O)c3c(=O)cc(-c4ccc(O)cc4)oc3c2)C(O)C(O)C1O` (configuration not stated), the TGI was > 100 µM.
